# Experimental data: the supplement of paper PMC10307832
# Tests used:
# Assay in all cases: relative viability (nuclei count vs DMSO), 5 days (fraction); higher = more cells survive
# Bortezomib + Decitabine = compound: CC(C)C[C@H](NC(=O)[C@H](Cc1ccccc1)NC(=O)c1cnccn1)B(O)O [Bortezomib] + Nc1ncn([C@H]2C[C@H](O)[C@@H](CO)O2)c(=O)n1 [Decitabine] (partner 2 µM)
# Method in brief: (§1)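 Five library-drug doses in √10 steps were combined with a fixed anchor-drug dose, or a single drug was given alone, by pin tool to lung cancer cell lines in 1536-well plates the day after seeding. Nuclei were stained and counted after 5 days. Relative viability is the nuclei count in treated wells over that in vehicle wells, taken as the median of duplicate plates.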
# [1] = compound: CC1=CC(=NN1)NC2=CC(=NC(=N2)/C=C/C3=CC=CC=C3)N4CCN(CC4)C + CC(=O)Nc1cccc(-n2c(=O)n(C3CC3)c(=O)c3c(Nc4ccc(I)cc4F)n(C)c(=O)c(C)c32)c1 [Trametinib] (partner 0.02 µM)
# Method in brief: as §1
# [2] = compound: CC1=CC(=NN1)NC2=CC(=NC(=N2)/C=C/C3=CC=CC=C3)N4CCN(CC4)C + CCNC(=O)c1noc(-c2cc(C(C)C)c(O)cc2O)c1-c1ccc(CN2CCOCC2)cc1 [Luminespib] (partner 0.01 µM)
# Method in brief: as §1
# [3] = compound: CC1=CC(=NN1)NC2=CC(=NC(=N2)/C=C/C3=CC=CC=C3)N4CCN(CC4)C + N=C(N)NC(=N)NCCc1ccccc1 [Phenformin] (partner 250 µM)
# Method in brief: as §1
Cell Line,relative viability (Bortezomib + Decitabine; first compound 0.0002 µM),relative viability (Bortezomib + Decitabine; first compound 0.000632 µM),relative viability (Bortezomib + Decitabine; first compound 0.002 µM),relative viability (Bortezomib + Decitabine; first compound 0.006325 µM),relative viability (Bortezomib + Decitabine; first compound 0.02 µM),relative viability ([1]; first compound 0.08 µM),relative viability ([1]; first compound 0.253 µM),relative viability ([1]; first compound 0.8 µM),relative viability ([1]; first compound 2.53 µM),relative viability ([1]; first compound 8 µM),relative viability ([2]; first compound 0.08 µM),relative viability ([2]; first compound 0.253 µM),relative viability ([2]; first compound 0.8 µM),relative viability ([2]; first compound 2.53 µM),relative viability ([2]; first compound 8 µM),relative viability ([3]; first compound 0.08 µM),relative viability ([3]; first compound 0.253 µM),relative viability ([3]; first compound 0.8 µM),relative viability ([3]; first compound 2.53 µM),relative viability ([3]; first compound 8 µM)
NCI-H3122,0.439,0.438,0.403,0.34,0.129,0.201,0.167,0.293,0.334,0.257,0.0829,0.0907,0.096,0.0908,0.0887,0.385,0.384,0.415,0.285,0.138
HCC-44,0.965,0.965,0.961,0.953,0.258,1.04,1.06,1.04,1.09,0.677,1.04,1.53,0.993,0.842,0.164,0.123,0.326,0.215,0.102,0.115
PC-3 [JPC-3],0.815,0.84,0.428,0.301,0.237,0.726,0.744,0.701,0.706,0.417,0.684,0.834,0.736,0.686,0.549,0.456,0.475,0.498,0.472,0.437
NCI-H1993,0.634,0.717,0.622,0.319,0.374,0.506,0.541,0.408,0.616,0.509,0.882,0.944,0.843,0.779,0.391,0.462,0.492,0.427,0.498,0.437
LOU-NH91,0.805,0.82,0.41,0.373,0.322,0.767,0.823,0.754,0.783,0.439,0.391,0.402,0.322,0.299,0.228,0.7,0.768,0.78,0.509,0.365
SK-MES-1,0.444,0.411,0.379,0.194,0.156,0.549,0.646,0.595,0.245,0.137,0.61,0.888,0.391,0.144,0.131,0.664,0.682,0.601,0.147,0.124
LCLC-103H,0.66,0.727,0.68,0.274,0.221,0.667,0.641,0.677,0.651,0.528,0.912,1.03,0.876,0.814,0.269,0.344,0.34,0.333,0.326,0.232
NCI-H1915,0.266,0.256,0.254,0.14,0.059,0.299,0.181,0.285,0.21,0.106,0.772,0.868,0.745,0.471,0.12,0.368,0.393,0.337,0.234,0.165
NCI-H1734,0.552,0.503,0.462,0.12,0.0968,0.628,0.601,0.56,0.41,0.121,0.178,0.236,0.163,0.145,0.109,0.417,0.375,0.391,0.162,0.104
NCI-H2170,0.462,0.465,0.444,0.377,0.126,0.932,0.916,0.91,0.671,0.355,0.705,0.692,0.688,0.444,0.14,0.44,0.388,0.382,0.32,0.204
HCC-15,0.626,0.619,0.598,0.111,0.114,0.371,0.378,0.396,0.278,0.0994,0.497,0.349,0.444,0.237,0.108,0.472,0.452,0.434,0.107,0.0823
SK-LU-1,0.499,0.644,0.533,0.245,0.174,0.502,0.266,0.555,0.229,0.129,0.204,0.192,0.136,0.148,0.0748,0.58,0.511,0.475,0.109,0.0429
NCI-H2023,0.216,0.236,0.245,0.122,0.0571,0.522,0.649,0.449,0.0864,0.0663,0.741,1.12,0.524,0.0645,0.0624,0.366,0.517,0.382,0.0903,0.0763
NCI-H1355,0.343,0.362,0.367,0.177,0.139,0.457,0.435,0.415,0.334,0.151,0.744,0.644,0.682,0.47,0.129,0.484,0.423,0.435,0.26,0.148
NCI-H1650,0.488,0.484,0.182,0.137,0.128,0.547,0.566,0.651,0.197,0.0762,0.19,0.184,0.206,0.203,0.183,0.418,0.404,0.464,0.106,0.0916
SW 1573,0.366,0.573,0.229,0.0617,0.0363,0.542,0.636,0.521,0.12,0.0764,0.421,0.259,0.179,0.105,0.0707,0.412,0.337,0.319,0.152,0.0862
